Patent US20210341448A1, “SCREENING METHOD FOR THERAPEUTIC DRUG OR PROPHYLACTIC DRUG FOR TAUOPATHY AND DIAGNOSTIC METHOD FOR TAUOPATHY” (National Center for Geriatrics and Gerontology, priority 2018, published 2021)

Experiments:
membrane protein (NMDAR) = test: Membrane protein-based sandwich ELISA; assay type: binding, mouse
Description: Pellets of the membrane protein obtained from tau knockout brain by the procedure of the above (7-1) were dissolved in 2% cholic acid or 1% deoxycholate/buffer (50 mM of HEPES, 150 mM of NaCl, pH 7.4), and the solution was centrifuged at 4° C., 150,000×g for 30 minutes to thereby collect the supernatant to use as a membrane protein solution. The obtained membrane protein solution was applied to an ELISA plate (Sumitomo Bakelite Co., Ltd., MS-8596F) and incubated at 4° C. for 60 minutes to thereby coat the plate with the membrane protein. After washing with wash solution (0.004 to 0.008% MNG-3, 50 mM of HEPES, pH 7.4), blocking was done by adding 1% FBS-containing wash solution and incubating at 4° C. for 60 minutes. The solvent of the HT-tau oligomer sample prepared in the above (1-4) was replaced with the wash solution using a protein concentrator (10K MWCO, Pierce, 88526) to thereby prepare a tau oligomer solution of 10^−16 to 10^−6 g/ml. These solutions were applied to the plate and incubated at 4° C. for 15 to 60 minutes. Then, the plate was washed thoroughly with the wash solution and a 5% skim milk-containing wash solution was added, followed by incubating at room temperature for 30 minutes to thereby block the protein. After washing using the wash solution, an anti-HaloTag antibody/wash solution (1:1000 dilution) was added and incubated at room temperature for 30 minutes. Subsequently, the plate was washed with the wash solution, an HRP-labelled secondary antibody/wash solution (Invitrogen, A27036) (1:5000 dilution) was added and incubated at room temperature for 30 minutes. Then, chromogenic reactions were carried out using an Ultra TMB solution (Thermo Fisher Scientific, 34028) to detect the tau oligomers bound to the membrane protein.

NMDA receptor = test: NMDAR-based sandwich ELISA; assay type: binding, mouse; details: tau oligomer solution of 10^−11 g/ml or less
NMDAR = target: T1, NMDAR (Homo sapiens, UniProt Q05586); test: Measurement of calcium influx through NMDAR into NT2-N cells; assay type: cell-based
T1 construct: endogenous in cells; host or cells: NT2-N neurons differentiated from NTERA-2 cl.D1 [NT2/D1] cells (ATCC CRL-1973)
Description: Cultured neurons expressing NMDARs retaining physiological functions were prepared by the following procedure to evaluate the NMDAR activation ability of the tau oligomer. The NTERA-2 cl.D1[NT2/D1] cells (ATCC CRL-1973) (hereinafter described as “NT2 cell”), which are derived from a human pluripotent embryonic cancer, were adhesively cultured on 10-cm plastic dish in maintenance culture medium (high glucose DMEM (Sigma-Aldrich, D6429), 10% FBS, 100 U/ml penicillin/streptomycin) under the conditions of 37° C. and 5% CO2 for 3 to 4 days until the confluency stage was attained. The NT2 cells were detached using Accutase (Innovative Cell Technologies, #AT104), were passaged, and were maintained over a period of 50 days. The medium was replaced 3 times a week.
The maintenance-cultured NT2 cells were dispersed in a low attachment petri dish (STAR SDish9015, RIKAKEN CO., LTD.) in a concentration of 1.5×10^6 to 2.5×10^6/dish, suspension-cultured under the conditions of 37° C. and 5% CO2 on a shaker (100 rpm), and 1 day later were induced to differentiate by adding 1 μM of all-trans-retinoic acid (abcam), to thereby form spheroids. 14 days later, the spheroids were collected, seeded in a 10-cm dish coated with 5 μg/ml of poly-D-lysin (PDL) (Sigma-Aldrich)/Laminin (LAM) (iMatrix-511, Nippi Inc.) and adhesively cultured under the conditions of 37° C. and 5% CO2. From the following day, the culture was carried out by adding 3 kinds of cell division inhibitors (10 μM of uridine, 10 μM of floxuridine, and 1 μM of AraC). […]
For analysis, 5 to 10 regions of the visual field of the NT2-N cells positioned in the system were manually set and the fluorescence intensities were recorded for each region, for Cal-520, every 1 minute for 1 hour continuously at excitation wavelength 480 nm/fluorescence emission wavelength 520 nm, and for Fluo-8, every 2 seconds for 5 minutes continuously at excitation wavelength 480 nm/fluorescence emission wavelength 520 nm. […]

- binding of the tau oligomer to membrane protein (membrane protein (NMDAR); tau oligomer solution of 10^−11 g/ml or lower): detected
- increase of intracellular calcium concentration (NMDAR activation ability) (NMDAR; Cal-520, NT2-N cells, 3 minutes after administration): has the NMDAR activation ability
- intracellular calcium concentration (NMDAR; Fluo-8, NT2-N cells, 100 μl of 0.03 μg/ml in HHBS): increased over time
Substance: tau oligomer: polymer of human tau 2N4R monomers, polymerized with mouse brain extract and ATP, collected as pellets
- amount of tau oligomer bound to membrane protein (membrane protein (NMDAR); tau oligomer solution of 10^−8 g/ml or higher): increased in a concentration-dependent manner
- binding of the tau oligomer to the NMDA receptor (NMDA receptor): increased in a concentration-dependent manner
